Laboratory results as given in publication PMC4430447 (International journal of pharmaceutics, 2014).
pKi: −log10 of the molar value. “Also recorded” adds a separate entry of the source. Where two headings read alike, the source gives them in different places.

Columns and labels:
human NTCP [1] = biological target: T1, human NTCP (Homo sapiens, UniProt Q14973); experiment: Uptake study on NTCP-HEK293 cells; format: cell-based; conditions: for Normalized Jmax: Jmax of compound normalized against Jmax of taurocholate; for Kt: Michaelis-Menten constant of uptake, 5 min, 0-200 μM in HBSS; for NTCP substrate (in words): uptake in presence versus absence of sodium
T1 sequence (Q14973 1-349): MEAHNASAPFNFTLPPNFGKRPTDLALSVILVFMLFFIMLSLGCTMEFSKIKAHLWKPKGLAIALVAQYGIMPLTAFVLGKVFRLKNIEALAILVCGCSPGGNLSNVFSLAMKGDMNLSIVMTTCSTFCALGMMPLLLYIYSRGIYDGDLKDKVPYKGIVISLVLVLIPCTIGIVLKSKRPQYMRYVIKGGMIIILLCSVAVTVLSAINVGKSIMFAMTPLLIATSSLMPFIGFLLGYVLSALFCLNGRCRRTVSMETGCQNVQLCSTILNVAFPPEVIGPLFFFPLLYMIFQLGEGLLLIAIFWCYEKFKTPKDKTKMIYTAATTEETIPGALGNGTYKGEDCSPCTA

NTCP-HEK293 cells = experiment: Passive uptake in the absence of sodium
human NTCP [2] = biological target: T1, human NTCP; experiment: Inhibition of taurocholate uptake into NTCP-HEK293 cells; format: cell-based; conditions: for Inhibition of NTCP taurocholate uptake (in words): NTCP-HEK293 cells, 0-200 μM
human NTCP [3] = biological target: T1, human NTCP; conditions: ref Dong et al., 2013, cited from earlier work
human NTCP [4] = biological target: T1, human NTCP; experiment: Inhibition of irbesartan or losartan uptake by taurocholate in NTCP-HEK293 cells; format: cell-based; conditions: substrates irbesartan or losartan

Question: For `CC(C)[C@H](NC(=O)CC[C@@H](C)[C@H]1CC[C@H]2[C@@H]3[C@H](O)C[C@@H]4C[C@H](O)CC[C@]4(C)[C@H]3CC[C@]12C)C(=O)O` [CDCA-L-Val-OH], which “Normalized Jmax” value (human NTCP [1]) is on record?
Answer: The value was 0.330 ± 0.031.

Question: And the Kt (human NTCP [1]; NTCP-HEK293 cells)?
Answer: Its Kt is 9.62 ± 1.47 µM.

Question: What about the “Pp (passive permeability)” value (NTCP-HEK293 cells) of the same molecule?
Answer: The value was 1.47 ± 0.09 cm/s ×10^6.

Question: With `C[C@H](CCC(=O)O)[C@H]1CC[C@H]2[C@@H]3[C@H](O)C[C@@H]4C[C@H](O)CC[C@]4(C)[C@H]3CC[C@]12C` [CDCA, chenodeoxycholate] as the molecule, how does the “NTCP substrate (in words)” value (human NTCP [1]; NTCP-HEK293 cells) read?
Answer: Its value is “indistinguishable uptake in the presence or absence of sodium; also recorded: no NTCP uptake”.

Question: What about the “Pp (passive permeability)” value (NTCP-HEK293 cells) of the same molecule?
Answer: Its value is 27.6 ± 1.5 cm/s ×10^6.

Question: With `C[C@H](CCC(=O)NCCS(=O)(=O)O)[C@H]1CC[C@H]2[C@@H]3[C@@H](O)C[C@@H]4C[C@H](O)CC[C@]4(C)[C@H]3CC[C@]12C` [TUDCA, tauroursodeoxycholate] as the molecule, how does the “Normalized Jmax” value (human NTCP [1]) read?
Answer: The value was 0.409 ± 0.038.

Question: And the Kt (human NTCP [1]; NTCP-HEK293 cells)?
Answer: Its Kt is 9.53 µM.

Question: For `C[C@H](CCC(=O)NCC(=O)O)[C@H]1CC[C@H]2[C@@H]3[C@@H](O)C[C@@H]4C[C@H](O)CC[C@]4(C)[C@H]3CC[C@]12C` [GUDCA, glycoursodeoxycholate], which “Normalized Jmax” value (human NTCP [1]) is on record?
Answer: Its value is 0.460 ± 0.143.

Question: What about the pKi (human NTCP [2]) of the same molecule?
Answer: The pKi was 4.82.

Question: And the “Inhibition of NTCP taurocholate uptake (in words)” value (human NTCP [2])?
Answer: The value was “reduced by GUDCA in a concentration-dependent manner”.

Question: With `C[C@H](CCC(=O)NCC(=O)O)[C@H]1CC[C@H]2[C@@H]3[C@H](O)C[C@@H]4C[C@H](O)CC[C@]4(C)[C@H]3CC[C@]12C` [GCDCA, glycochenodeoxycholate] as the molecule, how does the “Normalized Jmax” value (human NTCP [1]) read?
Answer: Its value is 0.726 ± 0.091.

Question: And the Kt (human NTCP [1]; NTCP-HEK293 cells)?
Answer: Its Kt is 10.9 ± 1.8 µM.

Question: And the “Pp (passive permeability)” value (NTCP-HEK293 cells)?
Answer: The value was 2.17 ± 0.32 cm/s ×10^6.

Question: What does the source list for `O=C1[C@H](CC[C@H](O)c2ccc(F)cc2)[C@@H](c2ccc(O)cc2)N1c1ccc(F)cc1` [Ezetimibe]?
Answer: NTCP substrate (in words) (human NTCP [1]; NTCP-HEK293 cells): not to be NTCP substrates; Previously identified as NTCP inhibitor (in words) (human NTCP [3]): previously identified as NTCP inhibitors

Question: For `CC(C)c1nc(N(C)S(C)(=O)=O)nc(-c2ccc(F)cc2)c1/C=C/[C@@H](O)C[C@@H](O)CC(=O)O` [Rosuvastatin], which “Pp (passive permeability)” value (NTCP-HEK293 cells) is on record?
Answer: Its value is 0.330 ± 0.006 cm/s ×10^6.

Question: What does the source list for `C[C@H](CCC(=O)N[C@@H](CCC(=O)OCc1ccccc1)C(=O)O)[C@H]1CC[C@H]2[C@@H]3[C@H](O)C[C@@H]4C[C@H](O)CC[C@]4(C)[C@H]3CC[C@]12C` [CDCA-L-Glu-γ-Benzyl Ester]?
Answer: Normalized Jmax (human NTCP [1]): 0.233 ± 0.036; Kt (human NTCP [1]; NTCP-HEK293 cells): 11.7 ± 4.3 µM; Pp (passive permeability) (NTCP-HEK293 cells): 7.70 ± 0.23 cm/s ×10^6

Question: With `C[C@H](CCC(=O)NCC(=O)O)[C@H]1CC[C@H]2[C@@H]3[C@H](O)C[C@@H]4C[C@H](O)CC[C@]4(C)[C@H]3C[C@H](O)[C@]12C` [GCA, glycocholate] as the molecule, how does the “Normalized Jmax” value (human NTCP [1]) read?
Answer: Its value is 0.508 ± 0.041.

Question: And the Kt (human NTCP [1]; NTCP-HEK293 cells)?
Answer: Its Kt is 15.8 ± 2.7 µM.

Question: Which results are given for `C[C@H](CCC(=O)O)[C@H]1CC[C@H]2[C@@H]3[C@H](O)C[C@@H]4C[C@H](O)CC[C@]4(C)[C@H]3C[C@H](O)[C@]12C` [CA, cholate]?
Answer: Normalized Jmax (human NTCP [1]): 0.523 ± 0.081; Kt (human NTCP [1]; NTCP-HEK293 cells): 54.9 µM; NTCP substrate (in words) (human NTCP [1]; NTCP-HEK293 cells): substrates; Pp (passive permeability) (NTCP-HEK293 cells): 4.56 ± 0.06 cm/s ×10^6

Question: Which “Inhibition of NTCP taurocholate uptake (in words)” value (human NTCP [2]) does the source give for `C[C@H](CCC(=O)O)[C@H]1CC[C@H]2[C@@H]3C(=O)C[C@@H]4CC(=O)CC[C@]4(C)[C@H]3CC(=O)[C@]12C` [DHCA, dehydrocholate] here?
Answer: Its value is “not an inhibitor of NTCP”.

Question: With `CCCCC1=NC2(CCCC2)C(=O)N1Cc1ccc(-c2ccccc2-c2nnn[nH]2)cc1` [Irbesartan] as the molecule, how does the “Normalized Jmax” value (human NTCP [1]) read?
Answer: The value was 0.172 ± 0.022.

Question: And the Kt (human NTCP [1]; NTCP-HEK293 cells)?
Answer: The Kt was 32.7 ± 5.9 µM.

Question: And the Jmax (human NTCP [1]; maximal flux, NTCP-HEK293 cells)?
Answer: Its Jmax is 0.430 ± 0.026 pmol/sec/cm^2.

Question: And the “NTCP substrate (in words)” value (human NTCP [1]; NTCP-HEK293 cells)?
Answer: The value was “substrates of human NTCP”.

Question: What about the “Jmax relative to taurocholate Jmax” value (human NTCP [1]; versus taurocholate Jmax) of the same molecule?
Answer: Its value is “about 20%”.

Question: And the “Pp (passive permeability)” value (NTCP-HEK293 cells)?
Answer: The value was 6.27 ± 0.14 cm/s ×10^6.

Question: What about the “Previously identified as NTCP inhibitor (in words)” value (human NTCP [3]) of the same molecule?
Answer: The value was “previously identified as NTCP inhibitors”.

Question: Which results are given for `C[C@H](CCC(=O)O)[C@H]1CC[C@H]2[C@@H]3[C@@H](O)C[C@@H]4C[C@H](O)CC[C@]4(C)[C@H]3CC[C@]12C` [UDCA, ursodeoxycholate]?
Answer: Normalized Jmax (human NTCP [1]): 0.0511 ± 0.0093; Kt (human NTCP [1]; NTCP-HEK293 cells): 1.55 µM; NTCP substrate (in words) (human NTCP [1]; NTCP-HEK293 cells): substrates; Normalized Jmax, fold lower than that for taurocholate (human NTCP [1]; versus taurocholate): 14 fold; Pp (passive permeability) (NTCP-HEK293 cells): 26.3 ± 1.1 cm/s ×10^6

Question: Which “Normalized Jmax” value (human NTCP [1]) does the source give for `C[C@H](CCC(=O)NCCS(=O)(=O)O)[C@H]1CC[C@H]2[C@@H]3[C@H](O)C[C@@H]4C[C@H](O)CC[C@]4(C)[C@H]3CC[C@]12C` [TCDCA, taurochenodeoxycholate] here?
Answer: The value was 0.621 ± 0.058.

Question: And the Kt (human NTCP [1]; NTCP-HEK293 cells)?
Answer: Its Kt is 8.12 ± 1.20 µM.

Question: And the “Pp (passive permeability)” value (NTCP-HEK293 cells)?
Answer: The value was 4.35 ± 0.70 cm/s ×10^6.

Question: What does the source list for `C[C@H](CCC(=O)O)[C@H]1CC[C@H]2[C@@H]3CC[C@@H]4C[C@H](O)CC[C@]4(C)[C@H]3CC[C@]12C` [LCA, lithocholate]?
Answer: NTCP substrate (in words) (human NTCP [1]; NTCP-HEK293 cells): indistinguishable uptake in the presence or absence of sodium; also recorded: not an apparent substrate; Pp (passive permeability) (NTCP-HEK293 cells): 33.9 ± 3.3 cm/s ×10^6

Question: For `CCCCc1nc(Cl)c(CO)n1Cc1ccc(-c2ccccc2-c2nn[nH]n2)cc1` [Losartan], which “Pp (passive permeability)” value (NTCP-HEK293 cells) is on record?
Answer: The value was 1.48 ± 0.12 cm/s ×10^6.

Question: With `C[C@H](CCC(=O)NCCS(=O)(=O)O)[C@H]1CC[C@H]2[C@@H]3CC[C@@H]4C[C@H](O)CC[C@]4(C)[C@H]3CC[C@]12C` [TLCA, taurolithocholate] as the molecule, how does the “Normalized Jmax” value (human NTCP [1]) read?
Answer: The value was 0.495 ± 0.053.

Question: What about the Kt (human NTCP [1]; NTCP-HEK293 cells) of the same molecule?
Answer: The Kt was 6.50 ± 1.87 µM.

Question: What about the “Pp (passive permeability)” value (NTCP-HEK293 cells) of the same molecule?
Answer: Its value is 3.37 ± 0.63 cm/s ×10^6.

Question: Which results are given for `CC(C)OC(=O)C(C)(C)Oc1ccc(C(=O)c2ccc(Cl)cc2)cc1` [Fenofibrate]?
Answer: NTCP substrate (in words) (human NTCP [1]; NTCP-HEK293 cells): not to be NTCP substrates; Previously identified as NTCP inhibitor (in words) (human NTCP [3]): previously observed them to be inhibitors

Question: For `C[C@H](CCC(=O)NCC(=O)O)[C@H]1CC[C@H]2[C@@H]3CC[C@@H]4C[C@H](O)CC[C@]4(C)[C@H]3CC[C@]12C` [GLCA, glycolithocholate], which “Normalized Jmax” value (human NTCP [1]) is on record?
Answer: The value was 0.384 ± 0.070.

Question: What about the Kt (human NTCP [1]; NTCP-HEK293 cells) of the same molecule?
Answer: The Kt was 4.87 ± 3.49 µM.

Question: And the pKi (human NTCP [2])?
Answer: The pKi was ~5.30.

Question: And the pKi (human NTCP [2]; listed as Lithocholate Glycine)?
Answer: The pKi was 5.14.

Question: What about the “Pp (passive permeability)” value (NTCP-HEK293 cells) of the same molecule?
Answer: The value was 6.67 ± 0.95 cm/s ×10^6.

Question: Which “Normalized Jmax” value (human NTCP [1]) does the source give for `C[C@H](CCC(=O)NCCS(=O)(=O)O)[C@H]1CC[C@H]2[C@@H]3[C@H](O)C[C@@H]4C[C@H](O)CC[C@]4(C)[C@H]3C[C@H](O)[C@]12C` [TCA, taurocholate] here?
Answer: Its value is 0.708 ± 0.057.

Question: What about the Kt (human NTCP [1]; NTCP-HEK293 cells) of the same molecule?
Answer: Its Kt is 19.8 ± 2.5 µM.

Question: And the “Kt (NTCP taurocholate Michaelis-Menten constant)” value (human NTCP [3]; used in Equation 1)?
Answer: The value was 22.7(+3.4) μM.

Question: What about the “Inhibition of irbesartan and losartan uptake (in words)” value (human NTCP [4]) of the same molecule?
Answer: Its value is “inhibited irbesartan and losartan uptake in a concentration dependent fashion”.
